Laboratory results from patent publication US20060281687A1, “Cyclin groove inhibitors” (priority 2003, published 2006).
Non-standard residues stand in square brackets, D forms with d. Residues, ends and D or L forms follow the SMILES beside them. *: point of attachment. X14 = O=C(c1ccc(-n2cncn2)c([N+](=O)[O-])c1)*; X3 = Cc1nc(C(=O)*)nn1-c1ccc([N+](=O)[O-])cc1; X2 = CC(C)n1c(C(F)(F)F)nc2cc(C(=O)*)ccc21; X6 = O=C(COn1c(-c2ccccc2)nc2ccc(Cl)cc21)*; X10 = O=C(c1c(-c2ccccc2)nc2cccc(Cl)n12)*; X4 = Cc1nc(C(=O)*)nn1-c1cccc(C(F)(F)F)c1; X8 = COc1cc(-n2nc(C(=O)*)nc2C)c(Cl)cc1Cl; X11 = Cc1nc(C(=O)*)nn1-c1cc(Cl)cc(Cl)c1; Phe(4-F) = N[C@@H](Cc1ccc(F)cc1)C(=O)O; X13 = Cc1nc(C(=O)*)nn1-c1ccc(Cl)cc1Cl; X9 = O=C(COn1c(-c2ccccc2)nc2ccccc21)*; X5 = Cc1nc(C(=O)*)nn1-c1ccc(Cl)cc1; X7 = O=C(c1ccc2nc(-n3cccc3)sc2c1)*; X1 = Cc1nc(C(=O)*)nn1-c1ccc(F)cc1; X12 = O=C(c1ccc(N2CCNC2=S)cc1)*

How the values were obtained:
[1] = target: T1, CDK2/cyclin A (Homo sapiens, UniProt P20248); assay: Competitive binding assay (fluorescence polarisation, fluorescein tracer peptide); details: purified recombinant human CDK2/cyclin A; tracer fluorescein-Ahx-His-Ala-Lys-Arg-Arg-Leu-Ile-Phe-NH2; 1 h room temperature; read-out: Inhibitory activity IC50 ± SD, Competitive binding assay
Description: Competitive Binding Assay
This assay was performed using half-area black 96-well microtitre plates. To each well were added: 10 μL assay buffer (25 mM HEPES pH 7, 10 mM NaCl, 0.01% Nonidet P-40, 1 mM dithiothreitol), 10 μL test compound solution (in 10% aq DMSO), 10 μL CDK2/cyclin A (ca. 2 μg purified recombinant human kinase complex) in assay buffer, and 10 μL tracer peptide solution (150 nM fluorescein-Ahx-His-Ala-Lys-Arg-Arg-Leu-Ile-Phe-NH2; refer McInnes, C. et al., 2003, Curr. Med. Chem. Anti-Cancer Agents, 3, 57; Atkinson, G. E. et al., 2002, Bioorg. Med. Chem. Lett., 12, 2501) in assay buffer. After incubation with shaking for 1 h at room temperature, fluorescence polarisation at 485-520 nm was measured using a Tecan Ultra reader. Half-maximal inhibition (IC50) was calculated from dose—response curves.

[2] = target: T1, CDK2/cyclin A; assay: Functional kinase assay (phosphorylation of GST-pRb(773-928)); assay type: biochemical; details: recombinant human CDK2/cyclin A; GST-pRb(773-928) substrate; 100 μM ATP; 30 min at 30° C.; read-out: Inhibitory activity IC50 ± SD, Functional kinase assay
Description: CDK2/cyclin A kinase assays (phosphorylation of natural retinoblastoma protein (pRb)) were performed in 96-well plates using recombinant proteins. To each well were added: 10 μL assay buffer (50 mM HEPES pH 7.4, 20 mM β-glycerophosphate, 5 mM EGTA, 2 mM dithiothreitol, 1 mM NaVO3, and 20 mM MgCl2), 5 μL GST-pRb(773-928) substrate stock solution,10 μL test compound solution, 10 μL (2-5 μg protein) of purified recombinant human CDK2/cyclin A stock. The reaction was initiated by addition of 10 μL/well Mg/ATP mix (15 mM MgCl2, 100 μM ATP with 30-50 kBq per well of [γ-^32P]-ATP) and mixtures were incubated with shaking for 30 min at 30° C. Reactions were stopped on ice, followed by addition of 5 μL/well of glutathione-Sepharose 4B (Amersham Biosciences) and further incubation with shaking for 30 min at room temperature. The mixtures were then filtered on Whatman GF/C filterplates and washed 4 times with 0.2 mL/well of 50 mM HEPES containing 1 mM ATP. Plates were dried, sealed, and scintillant (Microscint 40) was added. Incorporated radioactivity was measured using a scintillation counter (TopCount, Packard Instruments, Pangbourne, Berks, UK). Half-maximal inhibition (IC50) was calculated from dose—response curves.

| SMILES | IC50 [1] | IC50 [2] |
| --- | --- | --- |
| CC(C)C[C@H](NC(=O)[C@H](CCCNC(=N)N)NC(=O)COn1c(-c2ccccc2)nc2ccccc21)C(=O)N[C@@H](CC(N)=O)C(=O)N[C@@H](Cc1ccc(F)cc1)C(N)=O [Compound 9] (X9-RLN[Phe(4-F)]-NH2) | 15 ± 2 µM | 37 ± 6 µM |
| CC(C)C[C@H](NC(=O)[C@H](CCCNC(=N)N)NC(=O)c1c(-c2ccccc2)nc2cccc(Cl)n12)C(=O)N[C@@H](CC(N)=O)C(=O)N[C@@H](Cc1ccc(F)cc1)C(N)=O [Compound 1] (X10-RLN[Phe(4-F)]-NH2) | 12 ± 2 µM | 53 ± 25 µM |
| Cc1cc(NC(=O)C2CCCCC2C(=O)N[C@@H](CC(C)C)C(=O)N[C@@H](CC(N)=O)C(=O)N[C@@H](Cc2ccc(F)cc2)C(N)=O)no1 (stereo partly shown) [Compound 15] | 219 ± 10 µM | 87 ± 14 µM |
| CC(C)C[C@@H](CNc1cccc(Oc2ccccc2)c1)NC(=O)[C@H](CCCNC(=N)N)NC(=O)[C@@H](N)CCCNC(=N)N [Compound 29] | 22.7 ± 2.72 µM | 8.55 ± 2.11 µM |
| Cc1nc(C(=O)N[C@@H](CCCNC(=N)N)C(=O)N[C@@H](CC(C)C)C(=O)N[C@@H](CC(N)=O)C(=O)N[C@@H](Cc2ccc(F)cc2)C(N)=O)nn1-c1ccc(Cl)cc1Cl [Compound 4] (X13-RLN[Phe(4-F)]-NH2) | 3.6 ± 0.6 µM | 6.4 ± 0.3 µM |
| Cc1nc(C(=O)N[C@@H](CCCNC(=N)N)C(=O)N[C@@H](CC(C)C)C(=O)N[C@@H](CC(N)=O)C(=O)N[C@@H](Cc2ccc(F)cc2)C(N)=O)nn1-c1cc(Cl)cc(Cl)c1 [Compound 10] (X11-RLN[Phe(4-F)]-NH2) | 2.1 ± 0.2 µM | 3.7 ± 0.2 µM |
| CC(C)C[C@H](NC(=O)[C@H](CCCNC(=N)N)NC(=O)[C@@H](N)CCCNC(=N)N)C(=O)NCc1cccc(Oc2ccccc2)c1 [Compound 26] | 4.7 ± 0.7 µM | 8.81 ± 1.08 µM |
| CC(C)C[C@H](NC(=O)[C@H](CCCNC(=N)N)NC(=O)[C@@H](N)CCCNC(=N)N)C(=O)Nc1cccc(Oc2ccccc2)c1 [Compound 24] | 56.9 ± 1.9 µM | 21.9 ± 4.9 µM |
| COc1cc(-n2nc(C(=O)N[C@@H](CCCNC(=N)N)C(=O)N[C@@H](CC(C)C)C(=O)N[C@@H](CC(N)=O)C(=O)N[C@@H](Cc3ccc(F)cc3)C(N)=O)nc2C)c(Cl)cc1Cl [Compound 2] (X8-RLN[Phe(4-F)]-NH2) | 0.93 ± 0.05 µM | 11 ± 7 µM |
| Cc1nc(C(=O)N[C@@H](CCCNC(=N)N)C(=O)N[C@@H](CC(C)C)C(=O)N[C@@H](CC(N)=O)C(=O)N[C@@H](Cc2ccc(F)cc2)C(N)=O)nn1-c1ccc(Cl)cc1 [Compound 3] (X5-RLN[Phe(4-F)]-NH2) | 4.1 ± 1.3 µM | 4.3 ± 2.1 µM |
| Cc1nc(C(=O)N[C@@H](CCCNC(=N)N)C(=O)N[C@@H](CC(C)C)C(=O)N[C@@H](CC(N)=O)C(=O)N[C@@H](Cc2ccc(F)cc2)C(N)=O)nn1-c1cccc(C(F)(F)F)c1 [Compound 14] (X4-RLN[Phe(4-F)]-NH2) | 2.8 ± 0.42 µM | 3.65 ± 0.92 µM |
| CC(C)C[C@H](NC(=O)[C@H](CCCNC(=N)N)NC(=O)c1ccc2c(c1)nc(C(F)(F)F)n2C(C)C)C(=O)N[C@@H](CC(N)=O)C(=O)N[C@@H](Cc1ccc(F)cc1)C(N)=O [Compound 13] (X2-RLN[Phe(4-F)]-NH2) | 2.6 ± 0.4 µM | 21.1 ± 7 µM |
| Cc1nc(C(=O)N[C@@H](CCCNC(=N)N)C(=O)N[C@@H](CC(C)C)C(=O)N[C@@H](CC(N)=O)C(=O)N[C@@H](Cc2ccc(F)cc2)C(N)=O)nn1-c1ccc(F)cc1 [Compound 6] (X1-RLN[Phe(4-F)]-NH2) | 6.1 ± 1.2 µM | 4.4 ± 0.8 µM |
| CC(C)C[C@H](NC(=O)[C@H](CCCNC(=N)N)NC(=O)c1ccc2nc(-n3cccc3)sc2c1)C(=O)N[C@@H](CC(N)=O)C(=O)N[C@@H](Cc1ccc(F)cc1)C(N)=O [Compound 12] (X7-RLN[Phe(4-F)]-NH2) | 4.8 ± 0.4 µM | 15.3 ± 3.1 µM |
| CC(C)C[C@@H](CNc1cccc(OCc2ccccc2)c1)NC(=O)[C@H](CCCNC(=N)N)NC(=O)[C@@H](N)CCCNC(=N)N [Compound 30] | 58.2 ± 3.82 µM | 8.37 ± 4.24 µM |
| CC(C)C[C@H](NC(=O)[C@H](CCCNC(=N)N)NC(=O)COn1c(-c2ccccc2)nc2ccc(Cl)cc21)C(=O)N[C@@H](CC(N)=O)C(=O)N[C@@H](Cc1ccc(F)cc1)C(N)=O [Compound 11] (X6-RLN[Phe(4-F)]-NH2) | 12 ± 2 µM | 30 ± 16 µM |
| CC(C)C[C@H](NC(=O)[C@H](CCCNC(=N)N)NC(=O)[C@@H](N)CCCNC(=N)N)C(=O)Nc1cccc(OCc2ccccc2)c1 [Compound 25] | 35 ± 2.03 µM | 29.8 ± 12 µM |
| CC(C)C[C@H](NC(=O)[C@H](CCCNC(=N)N)NC(=O)c1ccc(-n2cncn2)c([N+](=O)[O-])c1)C(=O)N[C@@H](CC(N)=O)C(=O)N[C@@H](Cc1ccc(F)cc1)C(N)=O [Compound 8] (X14-RLN[Phe(4-F)]-NH2) | 28 ± 4 µM | 26 ± 5 µM |
| Cc1nc(C(=O)N[C@@H](CCCNC(=N)N)C(=O)N[C@@H](CC(C)C)C(=O)N[C@@H](CC(N)=O)C(=O)N[C@@H](Cc2ccc(F)cc2)C(N)=O)nn1-c1ccc([N+](=O)[O-])cc1 [Compound 7] (X3-RLN[Phe(4-F)]-NH2) | 6.4 ± 1.8 µM | 5.4 ± 0.9 µM |
| CC(C)C[C@H](NC(=O)[C@H](CCCNC(=N)N)NC(=O)c1ccc(N2CCNC2=S)cc1)C(=O)N[C@@H](CC(N)=O)C(=O)N[C@@H](Cc1ccc(F)cc1)C(N)=O [Compound 5] (X12-RLN[Phe(4-F)]-NH2) | 5.8 ± 1.6 µM | 19 ± 3 µM |
